Data on four compounds can be found in ChEMBL document CHEMBL1147146, “Cells lacking DNA topoisomerase II beta are resistant to genistein” (J Nat Prod, 2007).

For assay [1], the target named is T1, DNA topoisomerase 1 (Homo sapiens) (UniProt P11387).
T1 sequence (whole entry): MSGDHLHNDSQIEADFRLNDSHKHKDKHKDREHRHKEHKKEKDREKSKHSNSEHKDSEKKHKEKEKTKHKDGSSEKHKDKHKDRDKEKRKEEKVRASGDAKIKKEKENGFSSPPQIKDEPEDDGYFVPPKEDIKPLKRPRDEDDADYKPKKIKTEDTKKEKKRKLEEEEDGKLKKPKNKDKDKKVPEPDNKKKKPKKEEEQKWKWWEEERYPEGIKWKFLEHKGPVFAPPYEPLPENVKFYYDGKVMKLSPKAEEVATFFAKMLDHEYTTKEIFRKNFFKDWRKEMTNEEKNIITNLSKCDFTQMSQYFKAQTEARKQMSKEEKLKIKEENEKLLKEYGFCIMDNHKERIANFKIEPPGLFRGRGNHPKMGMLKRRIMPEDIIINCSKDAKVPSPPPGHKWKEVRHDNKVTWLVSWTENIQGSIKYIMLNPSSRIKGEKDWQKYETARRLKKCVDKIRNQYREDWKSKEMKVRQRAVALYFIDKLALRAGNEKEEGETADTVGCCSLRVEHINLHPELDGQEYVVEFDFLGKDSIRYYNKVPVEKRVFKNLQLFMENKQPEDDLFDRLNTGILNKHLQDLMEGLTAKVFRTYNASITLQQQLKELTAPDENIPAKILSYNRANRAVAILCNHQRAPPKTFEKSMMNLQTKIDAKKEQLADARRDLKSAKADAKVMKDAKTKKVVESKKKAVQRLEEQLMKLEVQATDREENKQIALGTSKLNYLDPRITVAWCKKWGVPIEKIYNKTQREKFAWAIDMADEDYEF
To be noted: K562, 10 uM.
Description: Induction of topoisomerase 1-DNA complexes in K562 cells assessed as integrated green fluorescence at 10 uM after 1 hr by TARDIS assay

Assay [2] has as its target T1, DNA topoisomerase 1 (Homo sapiens). To be noted: K562.
Description: Induction of topoisomerase 1-DNA complexes in K562 cells assessed as integrated green fluorescence at 10 times their IC50 after 2 hrs by TARDIS assay
For assay [3] the target is unchanged. As to conditions: K562. This is another data set of the same source.
Description: Induction of topoisomerase 1-DNA complexes in K562 cells assessed as integrated green fluorescence at 10 times their IC50 after 8 hrs by TARDIS assay
Assay [4] has the same target. As to conditions: K562. The source holds these as a separate data set.
Description: Induction of topoisomerase 1-DNA complexes in K562 cells assessed as integrated green fluorescence at 10 times their IC50 after 24 hrs by TARDIS assay
Assay [5] deals with DNA topoisomerase 2-beta (Homo sapiens) (UniProt Q02880). Kind of assay: Induction of human recombinant topoisomerase 2beta-DNA complex in K562 cells assessed as integrated fluorescence at 10 uM after 2 hrs by TARDIS assay. Type of assay: cell-based.
Chain of DNA topoisomerase 2-beta (Homo sapiens) (Q02880 whole entry): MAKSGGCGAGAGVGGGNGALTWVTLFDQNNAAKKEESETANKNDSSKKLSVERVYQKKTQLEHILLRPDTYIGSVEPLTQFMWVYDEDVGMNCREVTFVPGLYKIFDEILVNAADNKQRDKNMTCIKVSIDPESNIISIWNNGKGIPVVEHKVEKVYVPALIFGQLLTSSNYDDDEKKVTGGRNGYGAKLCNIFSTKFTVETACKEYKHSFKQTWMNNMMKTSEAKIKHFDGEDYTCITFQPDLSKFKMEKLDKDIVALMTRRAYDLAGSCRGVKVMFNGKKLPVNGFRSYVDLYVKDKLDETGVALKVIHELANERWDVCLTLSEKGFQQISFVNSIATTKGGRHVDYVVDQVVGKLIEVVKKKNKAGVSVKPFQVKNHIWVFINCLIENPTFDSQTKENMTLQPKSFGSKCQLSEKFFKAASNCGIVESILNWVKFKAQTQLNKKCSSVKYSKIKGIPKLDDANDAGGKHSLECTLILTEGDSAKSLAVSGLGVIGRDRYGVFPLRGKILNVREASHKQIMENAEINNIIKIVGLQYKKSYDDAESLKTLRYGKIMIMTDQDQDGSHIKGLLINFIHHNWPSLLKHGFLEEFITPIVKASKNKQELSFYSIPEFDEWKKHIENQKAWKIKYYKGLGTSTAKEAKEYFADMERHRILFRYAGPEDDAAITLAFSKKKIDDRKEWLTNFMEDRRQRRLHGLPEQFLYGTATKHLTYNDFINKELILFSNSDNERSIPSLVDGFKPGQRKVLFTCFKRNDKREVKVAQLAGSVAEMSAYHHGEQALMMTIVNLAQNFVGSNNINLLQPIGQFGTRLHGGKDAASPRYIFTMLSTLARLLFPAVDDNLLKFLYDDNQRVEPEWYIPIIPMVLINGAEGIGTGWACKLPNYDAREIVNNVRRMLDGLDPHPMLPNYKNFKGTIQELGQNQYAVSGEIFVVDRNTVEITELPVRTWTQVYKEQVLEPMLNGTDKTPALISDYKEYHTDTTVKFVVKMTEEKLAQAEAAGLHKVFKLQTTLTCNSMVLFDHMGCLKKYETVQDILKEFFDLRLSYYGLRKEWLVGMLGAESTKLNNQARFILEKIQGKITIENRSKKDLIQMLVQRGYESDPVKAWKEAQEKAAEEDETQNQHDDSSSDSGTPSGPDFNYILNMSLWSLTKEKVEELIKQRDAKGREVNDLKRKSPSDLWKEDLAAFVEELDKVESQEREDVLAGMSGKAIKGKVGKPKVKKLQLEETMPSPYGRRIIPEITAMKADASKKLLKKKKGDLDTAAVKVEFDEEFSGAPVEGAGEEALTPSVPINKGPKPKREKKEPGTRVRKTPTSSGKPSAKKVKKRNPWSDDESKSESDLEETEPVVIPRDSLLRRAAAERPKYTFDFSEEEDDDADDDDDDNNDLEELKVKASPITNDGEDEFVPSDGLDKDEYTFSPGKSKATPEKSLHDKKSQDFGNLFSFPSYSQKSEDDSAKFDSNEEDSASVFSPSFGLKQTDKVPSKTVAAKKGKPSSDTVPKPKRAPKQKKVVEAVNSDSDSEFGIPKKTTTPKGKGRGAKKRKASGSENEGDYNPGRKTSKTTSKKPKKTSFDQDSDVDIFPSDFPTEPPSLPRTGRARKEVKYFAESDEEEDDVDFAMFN
Assay [6] concerns the target DNA topoisomerase 2-alpha (Homo sapiens) (UniProt P11388). To be noted: K562.
Description: Induction of human recombinant topoisomerase 2-DNA complexes in K562 cells assessed as integrated green fluorescence at 10 times their IC50 after 2 hrs by TARDIS assay
For assay [7] the target is unchanged. As to conditions: K562. This is another data set of the same source.
Description: Induction of human recombinant topoisomerase 2-DNA complexes in K562 cells assessed as integrated green fluorescence at 10 times their IC50 after 8 hrs by TARDIS assay
For assay [8] the target is unchanged. As to conditions: K562. This is another data set of the same source.
Description: Induction of human recombinant topoisomerase 2-DNA complexes in K562 cells assessed as integrated green fluorescence at 10 times their IC50 after 24 hrs by TARDIS assay
The target is the same in assay [9]. As to conditions: K562, 10 uM.
Description: Induction of human recombinant topoisomerase 2-DNA complexes in K562 cells assessed as integrated green fluorescence at 10 uM after 2 hrs by TARDIS assay
The subject of another assay is K562. The assay is described as follows: Growth inhibition of K562 cells by XTT assay after 5 days. To be noted: Homo sapiens, K562, 120 h. Type of assay: functional, cell-based. (Tetrazolium assays rely on reduction of a dye to a coloured formazan, in cell work by metabolically active cells.)
In assay [10] the target is T1, DNA topoisomerase 1 (Homo sapiens). Kind of assay: Induction of topoisomerase 1-DNA complexes in K562 cells assessed as integrated green fluorescence at 175 uM after 0.5 hrs by TARDIS assay. Type of assay: cell-based.
The target is the same in assay [11]. Kind of assay: Induction of topoisomerase 1-DNA complexes in K562 cells assessed as integrated green fluorescence at 175 uM after 2 hrs by TARDIS assay. In kind it is cell-based.
Assay [12] shares this target. Kind of assay: Induction of topoisomerase 1-DNA complexes in K562 cells assessed as integrated green fluorescence at 175 uM after 6 hrs by TARDIS assay. Type of assay: cell-based.
For assay [13] the target is unchanged. The assay is described as follows: Induction of topoisomerase 1-DNA complexes in K562 cells assessed as integrated green fluorescence at 175 uM after 24 hrs by TARDIS assay. In kind it is cell-based.
For assay [14], the species on record is Mus musculus. The assay is described as follows: Growth inhibition of mouse topoisomerase 2-beta -/- cells at 100 to 300 uM after 4 hrs by XTT assay. In kind it is functional.
The species named for assay [15] is Mus musculus. Kind of assay: Growth inhibition of mouse topoisomerase 2-beta +/+ cells at 100 to 300 uM after 4 hrs by XTT assay. In kind it is functional.
Assay [16] in a line: Survival of mouse wild-type topoisomerase 2beta +/+cells at 100 uM after 4 hrs by colonogenic assay. Type of assay: functional.
Assay [17] is described as follows: Survival of mouse topoisomerase 2-beta -/- cells at 100 uM after 4 hrs by colonogenic assay. Type of assay: functional.
Assay [18] can be described thus: Growth inhibition of mouse topoisomerase 2-beta -/- cells at 300 uM after 4 hrs by colonogenic assay. Set-up: scale not given: the % may be the effect or the level left. Type of assay: functional.
Assay [19] can be described thus: Growth inhibition of mouse knock out topoisomerase 2-beta -/- cells after 4 hrs by colonogenic assay. In kind it is functional.
Assay [20] in a line: Growth inhibition of mouse wild-type topoisomerase 2-beta +/+ cells after 4 hrs by colonogenic assay. Type of assay: functional.
The target in assay [21] is DNA topoisomerase 2-beta (Homo sapiens) (UniProt Q02880). The assay is described as follows: Induction of human recombinant topoisomerase 2beta-DNA complex in K562 cells assessed as integrated fluorescence at 175 uM after 2 hrs by TARDIS assay. In kind it is cell-based.
The target of assay [22] is DNA topoisomerase 2-alpha (Homo sapiens) (UniProt P11388). The assay is described as follows: Induction of human recombinant topoisomerase 2-DNA complexes in K562 cells assessed as integrated green fluorescence at 175 uM after 0.5 hrs by TARDIS assay. In kind it is cell-based.
Chain of DNA topoisomerase 2-alpha (Homo sapiens) (P11388 whole entry): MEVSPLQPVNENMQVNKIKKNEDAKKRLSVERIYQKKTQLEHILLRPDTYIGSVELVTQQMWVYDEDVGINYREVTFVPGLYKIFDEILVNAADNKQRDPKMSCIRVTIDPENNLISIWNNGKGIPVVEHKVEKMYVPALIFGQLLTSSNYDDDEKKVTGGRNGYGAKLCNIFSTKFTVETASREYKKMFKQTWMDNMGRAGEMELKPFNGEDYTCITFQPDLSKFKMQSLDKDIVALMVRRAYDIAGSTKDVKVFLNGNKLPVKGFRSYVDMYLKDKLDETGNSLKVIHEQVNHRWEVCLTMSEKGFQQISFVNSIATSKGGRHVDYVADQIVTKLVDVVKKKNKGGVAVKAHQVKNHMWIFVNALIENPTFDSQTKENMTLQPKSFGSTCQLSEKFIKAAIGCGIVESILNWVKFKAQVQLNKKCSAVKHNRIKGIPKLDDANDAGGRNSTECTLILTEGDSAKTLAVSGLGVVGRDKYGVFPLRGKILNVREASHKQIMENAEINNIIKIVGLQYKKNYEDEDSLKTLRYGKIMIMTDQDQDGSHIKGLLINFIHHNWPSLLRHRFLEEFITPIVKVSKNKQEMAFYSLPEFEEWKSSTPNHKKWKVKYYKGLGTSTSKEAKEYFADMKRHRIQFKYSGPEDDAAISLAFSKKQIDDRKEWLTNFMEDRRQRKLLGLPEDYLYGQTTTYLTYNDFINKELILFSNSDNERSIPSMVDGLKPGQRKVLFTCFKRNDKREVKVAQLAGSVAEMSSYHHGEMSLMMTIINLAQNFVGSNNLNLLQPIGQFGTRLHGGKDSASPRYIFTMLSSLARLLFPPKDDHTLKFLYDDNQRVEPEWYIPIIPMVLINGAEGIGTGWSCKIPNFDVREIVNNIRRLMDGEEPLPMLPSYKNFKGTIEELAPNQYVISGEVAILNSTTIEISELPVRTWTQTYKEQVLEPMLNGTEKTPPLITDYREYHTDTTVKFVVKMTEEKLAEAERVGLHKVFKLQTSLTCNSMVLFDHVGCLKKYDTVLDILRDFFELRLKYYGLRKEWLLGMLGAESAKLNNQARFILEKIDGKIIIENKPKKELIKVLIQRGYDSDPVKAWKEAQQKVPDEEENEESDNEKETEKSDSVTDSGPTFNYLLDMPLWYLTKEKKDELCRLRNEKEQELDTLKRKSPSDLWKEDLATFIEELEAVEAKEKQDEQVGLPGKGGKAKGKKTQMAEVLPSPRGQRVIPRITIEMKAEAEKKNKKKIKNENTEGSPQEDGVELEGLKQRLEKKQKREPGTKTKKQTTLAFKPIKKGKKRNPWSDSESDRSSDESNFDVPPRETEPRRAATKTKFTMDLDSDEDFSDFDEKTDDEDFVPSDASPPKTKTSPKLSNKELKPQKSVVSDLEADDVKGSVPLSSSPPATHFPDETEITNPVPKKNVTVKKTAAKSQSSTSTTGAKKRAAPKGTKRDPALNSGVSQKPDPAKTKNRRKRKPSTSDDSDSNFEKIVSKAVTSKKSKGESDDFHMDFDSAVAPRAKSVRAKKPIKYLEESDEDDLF
Assay [23] has the same target. The assay is described as follows: Induction of human recombinant topoisomerase 2-DNA complexes in K562 cells assessed as integrated green fluorescence at 175 uM after 2 hrs by TARDIS assay. In kind it is cell-based.
The target is the same in assay [24]. Kind of assay: Induction of human recombinant topoisomerase 2-DNA complexes in K562 cells assessed as integrated green fluorescence at 175 uM after 6 hrs by TARDIS assay. In kind it is cell-based.
The target is the same in assay [25]. The assay is described as follows: Induction of human recombinant topoisomerase 2-DNA complexes in K562 cells assessed as integrated green fluorescence at 175 uM after 24 hrs by TARDIS assay. In kind it is cell-based.
Assay [26] deals with T1, DNA topoisomerase 1 (Homo sapiens). The assay is described as follows: Inhibition of topoisomerase 1 assessed as reduction of camptothecin-induced topo 1-DNA complexes in K562 cells by measuring integrated fluorescence at 17 uM after 24 hrs by TARDIS assay. In kind it is cell-based.
Assay [27] has the same target. The assay is described as follows: Inhibition of topoisomerase 1 assessed as reduction of camptothecin-induced topo 1-DNA complexes in K562 cells by measuring integrated fluorescence at 175 uM after 24 hrs by TARDIS assay. In kind it is cell-based.
Assay [28] deals with DNA topoisomerase 2-alpha (Homo sapiens) (UniProt P11388). The assay is described as follows: Inhibition of human recombinant topoisomerase 2 assessed as reduction of etoposide-induced topo 2-DNA complexes in K562 cells by measuring integrated fluorescence at 17 uM after 24 hrs by TARDIS assay. Type of assay: cell-based.
For assay [29] the target is unchanged. The assay is described as follows: Inhibition of human recombinant topoisomerase 2 assessed as reduction of etoposide-induced topo 2-DNA complexes in K562 cells by measuring integrated fluorescence at 175 uM after 24 hrs by TARDIS assay. Type of assay: cell-based.
For assay [30] the target is unchanged. Kind of assay: Inhibition of human recombinant topoisomerase 2 assessed as reduction of etoposide-induced topo 2-DNA complexes in K562 cells by measuring integrated fluorescence at 14 uM after 24 hrs by TARDIS assay. Type of assay: cell-based.
For assay [31] the target is unchanged. The assay is described as follows: Inhibition of human recombinant topoisomerase 2 assessed as reduction of etoposide-induced topo 2-DNA complexes in K562 cells by measuring integrated fluorescence at 146 uM after 24 hrs by TARDIS assay. Type of assay: cell-based.
Assay [32] deals with T1, DNA topoisomerase 1 (Homo sapiens). The assay is described as follows: Induction of topoisomerase 1-DNA complexes in K562 cells assessed as integrated green fluorescence at 146 uM after 0.5 hrs by TARDIS assay. In kind it is cell-based.
Assay [33] has the same target. The assay is described as follows: Induction of topoisomerase 1-DNA complexes in K562 cells assessed as integrated green fluorescence at 146 uM after 2 hrs by TARDIS assay. Type of assay: cell-based.
The target is the same in assay [34]. The assay is described as follows: Induction of topoisomerase 1-DNA complexes in K562 cells assessed as integrated green fluorescence at 146 uM after 6 hrs by TARDIS assay. In kind it is cell-based.
For assay [35] the target is unchanged. Kind of assay: Induction of topoisomerase 1-DNA complexes in K562 cells assessed as integrated green fluorescence at 146 uM after 24 hrs by TARDIS assay. Type of assay: cell-based.
The target in assay [36] is DNA topoisomerase 2-alpha (Homo sapiens) (UniProt P11388). The assay is described as follows: Induction of human recombinant topoisomerase 2-DNA complexes in K562 cells assessed as integrated green fluorescence at 146 uM after 0.5 hrs by TARDIS assay. Type of assay: cell-based.
The target is the same in assay [37]. The assay is described as follows: Induction of human recombinant topoisomerase 2-DNA complexes in K562 cells assessed as integrated green fluorescence at 146 uM after 2 hrs by TARDIS assay. Type of assay: cell-based.
For assay [38] the target is unchanged. Kind of assay: Induction of human recombinant topoisomerase 2-DNA complexes in K562 cells assessed as integrated green fluorescence at 146 uM after 6 hrs by TARDIS assay. Type of assay: cell-based.
The target is the same in assay [39]. The assay is described as follows: Induction of human recombinant topoisomerase 2-DNA complexes in K562 cells assessed as integrated green fluorescence at 146 uM after 24 hrs by TARDIS assay. In kind it is cell-based.
Assay [40] addresses T1, DNA topoisomerase 1 (Homo sapiens). The assay is described as follows: Inhibition of topoisomerase 1 assessed as reduction of camptothecin-induced topo 1-DNA complexes in K562 cells by measuring integrated fluorescence at 14 uM after 24 hrs by TARDIS assay. Type of assay: cell-based.
Assay [41] shares this target. The assay is described as follows: Inhibition of topoisomerase 1 assessed as reduction of camptothecin-induced topo 1-DNA complexes in K562 cells by measuring integrated fluorescence at 146 uM after 24 hrs by TARDIS assay. Type of assay: cell-based.

The source made the active and inactive calls. The calls are words filed in the database; no cut-off is given here.

Take `CC[C@@]1(O)C(=O)OCc2c1cc1n(c2=O)Cc2cc3ccccc3nc2-1`: the Fluorescence intensity is 11.4 in [1], 2.51 in assay [2], 1.58 in [3] and 1.04 in assay [4].

Regarding `COc1cc([C@@H]2c3cc4c(cc3[C@@H](O[C@@H]3O[C@@H]5CO[C@@H](C)O[C@H]5[C@H](O)[C@H]3O)[C@H]3COC(=O)[C@H]23)OCO4)cc(OC)c1O`, the Fluorescence intensity in [5] amounted to 3940; in assay [6], 13.2; in assay [7], 20.9; in assay [8], 23.4; in [9], 49.4.

A word on the IC50: it is the concentration that gives 50% inhibition. As to `O=c1c(-c2ccc(O)cc2)coc2cc(O)cc(O)c12` [GENISTEIN], the figures for the IC50 (in the assay on K562; in assay [19]; in assay [20]) were 17.6 µM, 300 µM and 47 µM, respectively. Besides, the Fluorescence intensity turned out to be 0.96 in [10]; 0.44 in assay [11]; 0.44 in [12]; 0.18 in assay [13]; 12700 in [21]; 7.03 in [22]. For the same compound, the Fluorescence intensity was found to be 20.4 in assay [23]; 7.03 in assay [24]; 12.6 in assay [25]; 112% in [26]; 148% in assay [27]; 95% in [28]. Besides, the Fluorescence intensity in assay [29] came out at 67%. In the assay filed under Mus musculus [14], the outcome was inactive. In the assay filed under Mus musculus [15], the outcome was Active. Besides, the Activity in [16] is 0%; in [17], 50%; in assay [18], 50%.

In the case of `O=c1cc(-c2ccc(O)c(O)c2)oc2cc(O)cc(O)c12` [LUTEOLIN], the Fluorescence intensity is 133% in assay [30]; 85% in assay [31]; 0.49 in [32]; 0.51 in assay [34]; 0.19 in assay [35]; 3.17 in assay [36]. Besides, the Fluorescence intensity in [38] was found to be 7.39; in assay [39] it was 5.05; in assay [40], 99%; in [41], 52%. Also, the half-maximal inhibitory concentration (IC50) in the assay with K562 was determined as 14.7 µM. Also, the Activity came to 0.28 in assay [33] and 4.08 in assay [37].
